From patent US20030207854A1, “Antiprogestins with partial agonist activity” (priority 2002, published 2003)
Like-named read-outs stand apart in the source and are kept apart here.

How the values were obtained:
human PR-B = molecular target: T1, human PR-B (Homo sapiens, UniProt P06401); experiment: PR-B transactivation of MMTVLuc reporter in transiently transfected 1470.2 cells; type: cell-based; details: for EC50: read-out: EC50 from dose-response curves
T1 construct: expressed in transfected cells; host or cells: 1470.2 mouse mammary adenocarcinoma cells
T1 sequence (P06401 1-933): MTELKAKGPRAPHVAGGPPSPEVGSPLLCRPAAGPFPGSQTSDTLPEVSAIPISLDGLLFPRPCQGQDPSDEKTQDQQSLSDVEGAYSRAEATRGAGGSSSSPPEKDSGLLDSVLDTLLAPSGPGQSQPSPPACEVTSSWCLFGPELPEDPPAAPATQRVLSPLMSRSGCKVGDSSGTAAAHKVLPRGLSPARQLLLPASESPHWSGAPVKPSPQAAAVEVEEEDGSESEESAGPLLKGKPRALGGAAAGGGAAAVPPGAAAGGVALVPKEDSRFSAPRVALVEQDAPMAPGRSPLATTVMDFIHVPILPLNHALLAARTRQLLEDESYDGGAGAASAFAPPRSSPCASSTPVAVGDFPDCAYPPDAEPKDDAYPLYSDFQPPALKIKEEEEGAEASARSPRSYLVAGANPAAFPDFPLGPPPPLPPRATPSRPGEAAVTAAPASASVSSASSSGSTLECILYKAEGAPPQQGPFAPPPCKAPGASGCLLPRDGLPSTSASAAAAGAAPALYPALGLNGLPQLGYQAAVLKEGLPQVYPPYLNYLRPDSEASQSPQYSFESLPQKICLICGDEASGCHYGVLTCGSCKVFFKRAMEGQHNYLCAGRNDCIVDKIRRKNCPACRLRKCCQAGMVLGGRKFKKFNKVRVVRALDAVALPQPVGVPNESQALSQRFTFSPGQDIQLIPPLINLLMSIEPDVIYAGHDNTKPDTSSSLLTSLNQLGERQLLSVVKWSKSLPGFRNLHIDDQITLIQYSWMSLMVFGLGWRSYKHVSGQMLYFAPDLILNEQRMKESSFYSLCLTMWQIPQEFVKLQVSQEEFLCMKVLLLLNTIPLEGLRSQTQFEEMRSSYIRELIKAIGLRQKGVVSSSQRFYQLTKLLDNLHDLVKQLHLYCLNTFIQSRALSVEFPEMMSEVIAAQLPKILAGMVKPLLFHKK
From the text: All data were normalized for Renilla expression. […] The error bars represent the SD of triplicate plates.
All data were normalized for protein levels in the cell lysates. […] The error bars represent the SD of triplicate plates.
All data were normalized for Renilla expression.

PR [1] = molecular target: T2, PR (Homo sapiens, UniProt P06401); type: cell-based; design: expressed in transfected cells; host or cells: CV-1 cells
T2 sequence (P06401 1-933): T1 sequence (P06401 1-933)
Method: Cell culture and transfection: Monolayer cultures of COS-7 cells were grown at 37° C. with 5% CO2 in Dulbecco's modified Eagle's medium (DMEM; GIBCO/BRL Life Technologies, Inc.) supplemented with 5% of fetal bovine serum, respectively. The 1470.2 mouse mammary adenocarcinoma cells (Pennie et al., Mol Cell Biol 15:2125-2134, 1995) were grown in DMEM with 4.5 g glucose/L (Quality Biologicals, Inc.) whereas T47D cells were grown in Dulbecco's modified Eagle's medium with high glucose (4.5 g/L, 2 mM glutamine, and 60 ng/ml insulin), both with 10% of fetal bovine serum. The 1470.2 cells were transiently transfected with the human PR-B construct, 1 μg of MMTVLuc, and 50 ng Renilla null luciferase, with the total transfected DNA brought up to 3 μg/60 mm dish with pBSK^+DNA, using the calcium phosphate method as previously described (Szapary et al., J Biol Chem 271:30576-30582, 1996). Following 24 h of steroid treatment, the cells were harvested in 1× Passive Lysis Buffer (0.5 ml/dish; Promega, Madison, Wis.). Twenty μl of the cell lysates were used to assay for luciferase activity using the Dual-Luciferase Assay System from Promega (Madison, Wis.) and the methods recommended by the supplier. […]

PR [2] = molecular target: T2, PR
From the text: The absolute levels of luciferase activity (±S.D. of triplicate values) were plotted.

[3] = 1470.2 cells, transfected human PR-B, MMTVLuc reporter

| Compound | EC50 (human PR-B; [3]) | agonist activity in CV-1 cells (PR [1]) | antiprogestin activity: inhibition of the action of 300 pM R5020 (PR [2]) | partial progestin activity with added PR (human PR-B) | EC50 (human PR-B) | agonist activity in CV-1 cells (PR [1]; CV-1 cells) | antiprogestin activity: inhibition of the action of 300 pM R5020 (PR [2]; 1 μM and 10 μM Dex-Mes, 1 μM Dex-Ox, FIG. 7) | partial progestin activity with added PR (human PR-B; 1470.2 cells, 3 or 30 ng PR-B plasmid, 1 μM steroid, FIG. 5B) |
| --- | --- | --- | --- | --- | --- | --- | --- | --- |
| CCC(=O)[C@@]1(C)CC[C@H]2[C@@H]3CCC4=CC(=O)CCC4=C3CC[C@@]21C [R5020, promegestone, reference compound] | 0.4 nM | – | – | – | – | – | – | – |
| C[C@@H]1C[C@H]2[C@@H]3CCC4=CC(=O)C=C[C@]4(C)[C@@]3(F)[C@@H](O)C[C@]2(C)[C@]12OCC2=O [Dex-Ox, dexamethasone oxetanone] | – | much more agonist activity than either RIT 3021-020 or RU 486 | reduced the activity of 300 pM R5020 to that of the competing steroid alone | significant amounts of partial progestin activity | ~30 nM | – | – | – |
| C[C@@H]1C[C@H]2[C@@H]3CCC4=CC(=O)C=C[C@]4(C)[C@@]3(F)[C@@H](O)C[C@]2(C)[C@@]1(O)C(=O)COS(C)(=O)=O [Dex-Mes, dexamethasone 21-mesylate] | ~350 nM | – | – | – | – | much more agonist activity than either RIT 3021-020 or RU 486 | reduced the activity of 300 pM R5020 to that of the competing steroid alone | significant amounts of partial progestin activity |
